14 molecules from US20080249075A1, “C11 Modified Retrosteroids as Progesterone Receptor Modulator Compounds” (Solvay Pharmaceuticals GmbH, priority 2007, published 2008) can be followed below.

The term inhibition denotes the relative decrease from the control value, in per cent. As a reminder, the pEC50 is −log10 of the EC50, conventionally taken in molar units. Higher therefore signals a small EC50. For orientation: pIC50 means −log10 of the IC50, conventionally taken in molar units. Low readings indicate a large IC50, high ones a small IC50.

SMILES strings stand for the structures. A value given as a limit tells only on which side of the number the result lay.

Experiment [1] has as its system T47D human breast carcinoma cells. Briefly: cells. Format: cell-based. Particulars: for activation at 0.1 µM: 48 h, read-out: PS [100 nM] (% stimulation); for inhibition at 0.1 µM: read-out: PI [100 nM] (% inhibition); for IC50: read-out: pIC50 (converted); for PS [100 nM] (% stimulation): agonistic mode, alkaline phosphatase induction (100% = 1 nM Dydrogesterone); for PS [100 nM] (% stimulation) / PI [100 nM] (% inhibition): compound 100 nM; for PI [100 nM] (% inhibition): antagonistic mode, inhibition of alkaline phosphatase induction by 1 nM Dydrogesterone; for pIC50: antagonistic potency against 1 nM Dydrogesterone. Here is the method:
The progesterone-dependent modulation of alkaline phosphatase expression was examined using T47D human breast carcinoma cells [Keydar et al., 1979]. The assay was performed as previously described by Di Lorenzo et al. (1991) with the modification of using Dydrogesterone as comparative progestin to determine the antagonistic and agonistic activity.
The cell line was purchased from CLS Cell Lines Service (Hildastrasse 21, D-69214 Eppelheim, Germany). In brief, the cells were plated in 96-well plates at 40,000 cells/well using the following growth medium: RPMI 1640 with: 10% FBS, 1 mM Sodium Pyruvat MEM, 10 mM Hepes, 0.01 mg/ml Bovine insulin, and 25 μg/ml Gentamycin. After 24 h of cultivation, the growth medium was replaced with medium containing 2% fetal bovine serum and the test compounds were added to each well to achieve the appropriate compound concentration: For determination of agonistic activity only the test compounds were added; for measurement of antagonistic activity the test compounds and additionally Dydrogesterone as standard progesterone agonist was added to a final concentration of 1 nM. After 48 h of cultivation, the medium was removed and the cells were washed with 200 μl of Dulbecco's phosphate-buffered saline without calcium and magnesium (PBS(−)). Then the cells were fixed with 3.7% formaldehyde in phosphate-buffered saline for 15 min at 22° C. After washing the cells with PBS, 100 μl of a […] (pNPP) solution (pNPP Liquid Substrate System; Sigma) was added to each well and incubated for 2 h at room temperature protected from light. The reaction was stopped with 100 μl 1N NaOH and the absorbance was measured with a spectrophotometer (Victor, Perkin Elmer) at 405 nm. The results are expressed as alkaline phosphatase induction (as 100% with 1 nM Dydrogesterone) or inhibition (against alkaline phosphatase induction by 1 nM Dydrogesterone) at a certain concentration of test compound.
% stimulation=(effect compound−basal)/(effect dydro 1 nM−basal)*100% inhibition of 1 nM Dydro=100*{1-[(effect compound−basal)/(effect dydro 1 nM−basal)]}
For each compound the % inhibition (PI) and % stimulation (PS), respectively, at a compound concentration of 100 nM was determined. For selected compounds, the corresponding values were measured for several different concentrations, and subsequently were plotted against the concentration of the test compound, and used to calculate the IC50 value (for the antagonistic potency; the IC50 value is the concentration (nM), required to reduce the maximal response by 50%) and EC50 values (for the agonistic potency; the EC50 value is the effective concentration (nM) that produced 50% of the maximum response), respectively.

The target of experiment [2] is T1, human progesterone receptor (Homo sapiens, UniProt P06401).
T1 sequence (P06401 679-933 limits assumed): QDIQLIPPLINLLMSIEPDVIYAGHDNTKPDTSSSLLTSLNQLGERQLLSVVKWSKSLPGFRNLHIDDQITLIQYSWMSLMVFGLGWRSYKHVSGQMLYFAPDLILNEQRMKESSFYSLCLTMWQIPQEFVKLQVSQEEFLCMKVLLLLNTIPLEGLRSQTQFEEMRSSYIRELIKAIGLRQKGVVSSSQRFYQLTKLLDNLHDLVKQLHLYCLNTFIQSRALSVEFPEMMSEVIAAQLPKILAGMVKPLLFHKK
Kind of experiment: Progesterone receptor binding assay, human PR (CEREP). Conditions: 3H-R5020 as ligand, MCF7 cells as source of PR; for Ki: read-out: Human PR binding (pKi) (converted). Here is the method:
The progesterone receptor (PR) binding assays were performed at CEREP (Celle I'Evescault, France).
The binding to the human progesterone receptor (Assay Cat No: Progesterone receptor-814h) was be measured using 3H-R5020 as ligand and MCF7 cells as the source of progesterone receptor. The assay is performed as described by Eckert & Katzenellenbogen [1982]. The binding to the bovine progesterone receptor (Assay Cat No: Progesterone receptor-814) was measured using 3H-R5020 as ligand and uterus tissue as the source of progesterone receptor. The assay was performed as described by Hurd & Moudgil [1988].
The results of the receptor binding assay are presented as the individual pKi values, which were determined by measuring the binding activity to the human or bovine PR, as indicated, for a concentration range of each compound.

`COc1cc(NC(=O)O[C@H]2C[C@]3(C)[C@@H](C(C)=O)CC[C@H]3[C@@H]3C=CC4=CC(=O)CC[C@@]4(C)[C@@H]32)cc(OC)c1OC` [Compound No. 24, (3,4,5-Trimethoxy-phenyl)-carbamic acid dydrogesterone-11β-yl ester]: in experiment [1] (Homo sapiens, T47D), the activation at 0.1 µM came to 0%, the inhibition at 0.1 µM is 88% and the IC50 was 50.1 nM. Also, the Ki in experiment [2] was 200 nM.

As to `CCO[C@]1(C(C)=O)CC[C@H]2[C@@H]3C=CC4=CC(=O)C5CC5[C@@]4(C)[C@@H]3[C@@H](OC(=O)Nc3cccc(OC)c3)C[C@@]21C` (stereo partly drawn) [Compound No. 29], in experiment [1] (Homo sapiens, T47D), the activation at 0.1 µM is 0%, the inhibition at 0.1 µM stood at 87% and the IC50 is 5.01 nM. For the same molecule, the Ki in experiment [2] was 398 nM.

For `CCO[C@]1(C(C)=O)CC[C@H]2[C@@H]3C=CC4=CC(=O)CC[C@@]4(C)[C@@H]3[C@@H](OC(=O)Nc3ccc4c(c3)OCO4)C[C@@]21C` [Compound No. 34, Benzo[1,3]-dioxol-5-yl-carbamic acid 17-ethoxy-dydrogesterone-11β-yl este], in experiment [1] (Homo sapiens, T47D), the activation at 0.1 µM came out at 95% and the inhibition at 0.1 µM was 5%. In addition, in experiment [2], the Ki is 126 nM.

For the molecule `CC(=O)[C@H]1CC[C@H]2[C@@H]3C=CC4=CC(=O)CC[C@@]4(C)[C@@H]3[C@@H](OC(=O)Nc3ccc4cn[nH]c4c3)C[C@]12C` [compound 41, (1H-Indazol-6-yl)-carbamic aciddydrogesterone-11-yl ester], in experiment [1] (Homo sapiens, T47D), the activation at 0.1 µM amounted to 1%, the inhibition at 0.1 µM came to 96% and the IC50 was 6.31 nM. For the same molecule, the Ki in experiment [2] is 316 nM.

In the case of `CC(=O)[C@H]1CC[C@H]2[C@@H]3C=CC4=CC(=O)CC[C@@]4(C)[C@@H]3C(OC(=O)NCc3ccc4c(c3)OCO4)C[C@]12C` (stereo partly drawn) [compound 42, Benzo[1,3]dioxol-5-ylmethyl-carbamic acid dydrogesterone-11-yl ester], in experiment [1] (T47D cells), the “PS [100 nM] (% stimulation)” value is recorded as 76.0% and the “PI [100 nM] (% inhibition)” value was determined as 6.0%. Also, the pEC50 in experiment [1] (agonistic potency, T47D cells) is 7.0. Also, the “Human PR binding (pKi)” value in experiment [2] was found to be 6.8.

Take `CC(=O)[C@H]1CC[C@H]2[C@@H]3C=CC4=CC(=O)CC[C@@]4(C)[C@@H]3[C@@H](OC(=O)Nc3cnc4ccccc4c3)C[C@]12C` [compound 51, Quinolin-3-yl-carbamic aciddydrogesterone-11-yl ester]: in experiment [1] (Homo sapiens, T47D), the activation at 0.1 µM came out at 5%, the inhibition at 0.1 µM worked out at 59% and the IC50 is 100 nM. Besides, the Ki in experiment [2] is 398 nM.

Take `COc1ccc(CNC(=O)O[C@H]2C[C@]3(C)[C@@H](C(C)=O)CC[C@H]3[C@@H]3C=CC4=CC(=O)CC[C@@]4(C)[C@@H]32)cc1` [compound 55, (4-Methoxy-benzyl)-carbamicacid dydrogesterone-11-yl ester]: in experiment [1] (Homo sapiens, T47D), the activation at 0.1 µM came to 143% and the inhibition at 0.1 µM is -79%. Further, the EC50 in experiment [1] (Homo sapiens, T47D, read-out: pEC50 (converted)) was 50.1 nM. For the same molecule, the Ki in experiment [2] was 100 nM.

As to `CC(=O)c1cccc(NC(=O)OC2C[C@]3(C)[C@@H](C(C)=O)CC[C@H]3[C@@H]3C=CC4=CC(=O)CC[C@]4(C)[C@@H]23)c1` (stereo partly drawn) [compound 81, (3-Acetyl-phenyl)-carbamic aciddydrogesterone-11-yl ester], in experiment [1] (T47D cells), the “PS [100 nM] (% stimulation)” value is on record as 1.0%, the “PI [100 nM] (% inhibition)” value was 72.0% and the pIC50 was 7.3. For the same molecule, in experiment [2], the “Human PR binding (pKi)” value was found to be 6.6.

Consider `CC(=O)Nc1ccc(NC(=O)OC2C[C@]3(C)[C@@H](C(C)=O)CC[C@H]3[C@@H]3C=CC4=CC(=O)CC[C@@]4(C)[C@H]23)cc1` (stereo partly drawn) [compound 82, (4-Acetylamino-phenyl)-carbamicacid dydrogesterone-11-yl ester], for which, in experiment [1] (T47D cells), the “PS [100 nM] (% stimulation)” value was 0.0% and the “PI [100 nM] (% inhibition)” value was found to be 40.0%. For the same molecule, the “Human PR binding (pKi)” value in experiment [2] is reported as 6.6.

Consider `CC(=O)[C@H]1CC[C@H]2[C@@H]3C=CC4=CC(=O)CC[C@@]4(C)[C@@H]3[C@@H](OC(=O)Nc3ccc4[nH]ccc4c3)C[C@]12C` [compound 91, (1H-Indol-5-yl)-carbamic aciddydrogesterone-11-yl ester], for which, in experiment [1] (Homo sapiens, T47D), the activation at 0.1 µM came to 1%, the inhibition at 0.1 µM worked out at 58% and the IC50 was 100 nM. For the same molecule, the Ki in experiment [2] was at least 631 nM.

Take `CSc1cccc(NC(=O)O[C@H]2C[C@]3(C)[C@@H](C(C)=O)CC[C@H]3[C@@H]3C=CC4=CC(=O)CC[C@@]4(C)[C@@H]32)c1` [compound 92, (3-Methylsulfanyl-phenyl)-carbamic acid dydrogesterone-11-yl ester]: in experiment [1] (Homo sapiens, T47D), the activation at 0.1 µM was found to be 1%, the inhibition at 0.1 µM was 55% and the IC50 was 100 nM. The Ki in experiment [2] is at least 631 nM.

For the molecule `CC(=O)[C@H]1CC[C@H]2[C@@H]3C=CC4=CC(=O)CC[C@@]4(C)[C@@H]3C(OC(=O)Nc3ccc4cnn(C)c4c3)C[C@]12C` (stereo partly drawn) [compound 99, (1-Methyl-1H-indazol-6-yl)-carbamic acid dydrogesterone-11-yl ester], in experiment [1] (T47D cells), the “PS [100 nM] (% stimulation)” value was 0.0%, the “PI [100 nM] (% inhibition)” value came out at 70.0% and the pIC50 is given as 7.1. The “Human PR binding (pKi)” value in experiment [2] was 6.3.

`CC(=O)[C@H]1CC[C@H]2[C@@H]3C=CC4=CC(=O)CC[C@@]4(C)[C@@H]3[C@@H](OC(=O)Nc3ccc4c(c3)N(C)C(=O)CO4)C[C@]12C` [compound 101, (4-Methyl-3-oxo-3,4-dihydro-2H-benzo[1,4]oxazin-6-yl)-carbamic acid dydrogesterone-11-yl ester]: in experiment [1] (Homo sapiens, T47D), the activation at 0.1 µM came out at 0%, the inhibition at 0.1 µM was determined as 72% and the IC50 is 79.4 nM. The Ki in experiment [2] is 316 nM.

`CC(=O)[C@H]1CC[C@H]2[C@@H]3C=CC4=CC(=O)CC[C@@]4(C)[C@@H]3C(OC(=O)Nc3ccc4c(c3)NC(=O)C(C)S4)C[C@]12C` (stereo partly drawn) [compound 102, (2-Methyl-3-oxo-3,4-dihydro-2H-benzo[1,4]thiazin-6-yl)-carbamic acid dydrogesterone-11-yl ester]: in experiment [1] (T47D cells), the “PS [100 nM] (% stimulation)” value was found to be 0.0%, the “PI [100 nM] (% inhibition)” value is recorded as 98.0% and the pIC50 came to 8.1. Besides, the “Human PR binding (pKi)” value in experiment [2] came to 6.3.
